# Test: Solvent screen of MMAE
# Assay type: physicochemical
# Conditions: acetone, ethanol, and isopropanol
# Description: A solvent screen of MMAE was conducted.
smiles,measurement,value
"CCC(C)C(C(CC(=O)N1CCCC1C(OC)C(C)C(=O)NC(C)C(O)c1ccccc1)OC)N(C)C(=O)C(NC(=O)C(NC)C(C)C)C(C)C (stereo not shown) [MMAE, monomethyl auristatin E]",solubility of MMAE in solvent,good solubility

# — patent US20240366521A1, “NANOPARTICLES AND METHODS OF USE” (Qana Therapeutics Inc., priority 2023, published 2024)
